Results as given in the Kinase Knowledgebase extract (Sharma et al. 2016).

Target: PIK3CG (human) (UniProt P48736)
Assay: Inhibition of PIK3CG Kinase Activity

Chain of PIK3CG (human) (P48736 whole entry, looked up): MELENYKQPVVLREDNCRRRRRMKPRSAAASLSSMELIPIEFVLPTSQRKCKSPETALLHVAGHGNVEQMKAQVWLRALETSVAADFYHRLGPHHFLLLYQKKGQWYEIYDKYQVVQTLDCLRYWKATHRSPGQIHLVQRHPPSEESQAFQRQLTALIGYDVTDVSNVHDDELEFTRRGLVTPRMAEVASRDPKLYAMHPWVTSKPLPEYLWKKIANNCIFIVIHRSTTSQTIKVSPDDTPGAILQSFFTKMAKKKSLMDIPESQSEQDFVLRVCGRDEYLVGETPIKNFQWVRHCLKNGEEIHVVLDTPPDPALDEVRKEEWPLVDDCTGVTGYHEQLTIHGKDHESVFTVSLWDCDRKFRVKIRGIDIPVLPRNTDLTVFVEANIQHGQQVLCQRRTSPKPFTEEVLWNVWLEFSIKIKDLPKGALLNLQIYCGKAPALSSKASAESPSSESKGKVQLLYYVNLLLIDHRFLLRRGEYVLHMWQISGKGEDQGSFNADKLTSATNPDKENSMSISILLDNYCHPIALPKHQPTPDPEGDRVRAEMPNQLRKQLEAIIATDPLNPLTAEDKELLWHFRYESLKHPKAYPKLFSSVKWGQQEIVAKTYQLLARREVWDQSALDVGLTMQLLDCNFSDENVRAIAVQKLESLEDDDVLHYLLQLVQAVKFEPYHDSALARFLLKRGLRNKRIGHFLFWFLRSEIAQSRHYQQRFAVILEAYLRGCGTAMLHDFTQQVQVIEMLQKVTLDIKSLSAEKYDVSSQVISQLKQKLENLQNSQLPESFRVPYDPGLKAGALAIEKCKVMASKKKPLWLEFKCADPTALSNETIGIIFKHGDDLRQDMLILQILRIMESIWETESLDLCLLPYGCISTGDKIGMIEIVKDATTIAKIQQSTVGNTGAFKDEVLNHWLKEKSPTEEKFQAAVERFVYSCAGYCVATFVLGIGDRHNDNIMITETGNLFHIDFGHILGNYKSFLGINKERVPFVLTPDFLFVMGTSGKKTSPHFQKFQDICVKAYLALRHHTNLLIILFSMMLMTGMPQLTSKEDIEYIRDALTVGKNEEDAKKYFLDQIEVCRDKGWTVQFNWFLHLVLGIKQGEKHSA

Row | Compound | IC50
1 | CNS(=O)(=O)c1cc(-c2nn(C)c3nc(N)ncc23)ccc1Cl | < 2 µM
2 | Cn1nc(-c2ccc(OCCN3CCCC3)c(F)c2)c2cnc(N)nc21 | < 2 µM
3 | Cn1nc(-c2cccc(C=O)c2)c2cnc(N)nc21 | < 2 µM
4 | COCCOc1c(F)cc(-c2nn(C)c3nc(N)ncc23)cc1Br | < 2 µM
5 | COc1ccc(-c2nn(C)c3nc(N)ncc23)cc1Cl | < 2 µM
6 | COc1c(Cl)cc(C(F)(F)F)cc1-c1nn(C)c2nc(N)ncc12 | < 2 µM
7 | Cn1nc(-c2cnc(N)c(C(F)(F)F)c2)c2cnc(N)nc21 | < 2 µM
8 | Cn1nc(-c2cc(F)ccc2O)c2cnc(N)nc21 | < 2 µM
9 | Cc1cccc(-c2nn(C)c3nc(N)ncc23)c1 | < 2 µM
10 | Cn1nc(-c2ccc(F)c(F)c2)c2cnc(N)nc21 | < 2 µM
11 | CC(=O)c1ccc(-c2nn(C)c3nc(N)ncc23)cc1 | < 2 µM
12 | CCOc1ccc2ccccc2c1-c1nn(C)c2nc(N)ncc12 | < 2 µM
13 | Cn1nc(-c2cc(F)c(C#N)c(F)c2)c2cnc(N)nc21 | < 2 µM
14 | Cn1nc(-c2cc(F)c(C(=O)O)c(F)c2)c2cnc(N)nc21 | < 2 µM
15 | Cn1nc(-c2ccc(NS(C)(=O)=O)c(F)c2)c2cnc(N)nc21 | < 2 µM
16 | CC(=O)c1cccc(-c2nn(C)c3nc(N)ncc23)c1 | < 2 µM
17 | Cn1nc(-c2cc(F)c3[nH]ccc3c2)c2cnc(N)nc21 | < 2 µM
18 | Cn1nc(-c2cccc(F)c2)c2cnc(N)nc21 | < 2 µM
19 | CC(C)Oc1ccc(-c2nn(C)c3nc(N)ncc23)cc1Cl | < 2 µM
20 | Cn1nc(-c2ccc(O)c(C(F)(F)F)c2)c2cnc(N)nc21 | < 2 µM
21 | Cn1nc(-c2cc(Cl)c(O)c(Cl)c2)c2c(NCCN3CCOCC3)nc(N)nc21 | < 2 µM
22 | Cn1nc(-c2ccc(Cl)c(NS(C)(=O)=O)c2)c2cnc(N)nc21 | < 2 µM
23 | COc1cc(OC(F)(F)F)ccc1-c1nn(C)c2nc(N)ncc12 | < 2 µM
24 | Cn1nc(-c2cc(Cl)cc(Br)c2O)c2cnc(N)nc21 | < 2 µM

Row | Compound | IC50
25 | COc1cc(-c2nn(C)c3nc(N)ncc23)cc(OC)c1OC | < 2 µM
26 | Cn1nc(-c2ccc(Cl)s2)c2cnc(N)nc21 | < 2 µM
27 | Cn1nc(-c2cc(F)c(F)c(F)c2)c2cnc(N)nc21 | < 2 µM
28 | Cn1nc(-c2ccc(Cl)c(Cl)c2)c2cnc(N)nc21 | < 2 µM
29 | COc1c(F)cc(-c2nn(C)c3nc(N)ncc23)cc1F | < 2 µM
30 | COc1ccc(Cl)cc1-c1nn(C)c2nc(N)ncc12 | < 2 µM
31 | COc1ccc(OC)c(-c2nn(C)c3nc(N)ncc23)c1 | < 2 µM
32 | Cn1nc(-c2cc(F)c(O)c(C=O)c2)c2cnc(N)nc21 | < 2 µM
33 | CC(=O)c1cccc(-c2nn(C)c3nc(N)ncc23)c1F | < 2 µM
34 | Cn1nc(-c2ccc(OCCCO)c(F)c2)c2cnc(N)nc21 | < 2 µM
35 | Cn1nc(-c2cc(Br)c(O)c(Br)c2)c2cnc(N)nc21 | < 2 µM
36 | Cn1nc(-c2ccc(O)c(F)c2)c2cnc(N)nc21 | < 2 µM
37 | Cn1nc(-c2cc(Cl)ccc2O)c2cnc(N)nc21 | < 2 µM
38 | Cn1nc(-c2ccc(O)cc2O)c2cnc(N)nc21 | < 2 µM
39 | Cn1nc(-c2cc(F)cc(Br)c2)c2cnc(N)nc21 | < 2 µM
40 | Cn1nc(-c2cccc(C#N)c2)c2cnc(N)nc21 | < 2 µM
41 | Cn1nc(-c2cc(F)c(OCCN3CCCC3)c(Br)c2)c2cnc(N)nc21 | < 2 µM
42 | CCCOc1cc(F)ccc1-c1nn(C)c2nc(N)ncc12 | < 2 µM
43 | CC(C)NC(=O)c1cccc(-c2nn(C)c3nc(N)ncc23)c1 | < 2 µM
44 | COc1ccc(-c2nn(C)c3nc(N)nc(NCc4ccccc4)c23)cc1F | < 2 µM
45 | Cn1nc(-c2cccnc2)c2cnc(N)nc21 | < 2 µM
46 | Cn1nc(-c2cc(Cl)c(O)c(C(F)(F)F)c2)c2cnc(N)nc21 | < 2 µM
47 | Cn1nc(-c2ccc3ccoc3c2)c2cnc(N)nc21 | < 2 µM
48 | CN(C)C(=O)c1cc(-c2nn(C)c3nc(N)ncc23)cc(F)c1OCc1ccccc1 | < 2 µM

Row | Compound | IC50
49 | COc1ccc(-c2nn(C)c3nc(N)ncc23)cc1 | < 2 µM
50 | COc1cccc(OC)c1-c1nn(C)c2nc(N)ncc12 | < 2 µM
51 | Cn1nc(-c2cccc(Br)c2OCc2ccccc2F)c2cnc(N)nc21 | < 2 µM
52 | Cn1nc(-c2cc(F)c(C=O)c(F)c2)c2cnc(N)nc21 | < 2 µM
53 | CNC(=O)c1cccc(-c2nn(C)c3nc(N)ncc23)c1 | < 2 µM
54 | Cc1noc(C)c1-c1nn(C)c2nc(N)ncc12 | < 2 µM
55 | Cn1nc(-c2ccc3c(c2)OCO3)c2cnc(N)nc21 | < 2 µM
56 | CNS(=O)(=O)c1cccc(-c2nn(C)c3nc(N)ncc23)c1 | < 2 µM
57 | COc1cc(OC)c(S(=O)(=O)NC(C)C)cc1-c1nn(C)c2nc(N)ncc12 | < 2 µM
58 | CC(C)CNC(=O)c1cccc(-c2nn(C)c3nc(N)ncc23)c1 | < 2 µM
59 | COc1c(F)cc(F)cc1-c1nn(C)c2nc(N)ncc12 | < 2 µM
60 | Cn1nc(-c2ccc3cc[nH]c3c2)c2cnc(N)nc21 | < 2 µM
61 | Cn1nc(-c2cc(C(F)(F)F)ccc2O)c2cnc(N)nc21 | < 2 µM
62 | Cn1nc(-c2cc(Cl)c(OC(F)(F)F)c(Br)c2O)c2cnc(N)nc21 | < 2 µM
63 | COc1ccc(C(=O)NC(C)C)cc1-c1nn(C)c2nc(N)ncc12 | < 2 µM
64 | COc1ccc(-c2nn(C)c3nc(N)ncc23)cc1F | < 2 µM
65 | COc1cc(OC)c(-c2nn(C)c3nc(N)ncc23)cc1Cl | < 2 µM
66 | COc1ccc(-c2nn(C)c3nc(N)ncc23)cn1 | < 2 µM
67 | CNc1ncc2c(-c3ccc(OC)c(F)c3)nn(C)c2n1 | < 2 µM
68 | Cn1nc(-c2ccnc(Cl)c2)c2cnc(N)nc21 | < 2 µM
69 | Cn1nc(-c2ccc(OCCO)c(F)c2)c2cnc(N)nc21 | < 2 µM
70 | Cn1nc(-c2cc(F)c(O)c(F)c2)c2cnc(N)nc21 | < 2 µM
71 | Cn1nc(-c2ccc(F)c(Cl)c2)c2cnc(N)nc21 | < 2 µM
72 | COc1c(F)cc(-c2nn(C)c3nc(N)ncc23)cc1NC(C)=O | < 2 µM

Now from value to compound:

Row | IC50 | Compound
73 | < 2 µM | COc1ncc(-c2nn(C)c3nc(N)ncc23)c(OC)n1
74 | < 2 µM | COc1ccc(-c2nn(C)c3nc(N)ncc23)cc1Br
75 | < 2 µM | COc1cc(-c2nn(C)c3nc(N)ncc23)cc(Cl)c1O
76 | < 2 µM | Cn1nc(-c2cc(C=O)ccc2O)c2cnc(N)nc21
77 | < 2 µM | Cn1nc(-c2cccc(NS(C)(=O)=O)c2)c2cnc(N)nc21
78 | < 2 µM | Cn1nc(-c2cncc(S(C)(=O)=O)c2)c2cnc(N)nc21
79 | < 2 µM | COc1cc(-c2nn(C)c3nc(N)ncc23)ccn1
80 | < 2 µM | COc1ccc(C=O)cc1-c1nn(C)c2nc(N)ncc12
81 | < 2 µM | Cn1nc(-c2cc(F)cc(F)c2)c2cnc(N)nc21
82 | < 2 µM | Cc1[nH]c2ccc(-c3nn(C)c4nc(N)ncc34)cc2c1C
83 | < 2 µM | Cn1nc(-c2ccc(OC(F)(F)F)cc2O)c2cnc(N)nc21
84 | < 2 µM | COc1cc(OC)c(S(=O)(=O)O)cc1-c1nn(C)c2nc(N)ncc12
85 | < 2 µM | Cn1nc(-c2cccc(F)c2O)c2cnc(N)nc21
86 | < 2 µM | CN1CCN(CCCOc2ccc(-c3nn(C)c4nc(N)ncc34)cc2F)CC1
87 | < 2 µM | Cn1nc(-c2ccco2)c2cnc(N)nc21
88 | < 2 µM | Cn1nc(-c2cncc(C(F)(F)F)c2)c2cnc(N)nc21
89 | < 2 µM | CC(C)Oc1ccc(-c2nn(C)c3nc(N)ncc23)cc1F
90 | < 2 µM | Cn1nc(-c2cc(O)cc(F)c2)c2cnc(N)nc21
91 | < 2 µM | Cn1nc(-c2ccc(OCCCN3CCOCC3)c(F)c2)c2cnc(N)nc21
92 | < 2 µM | CCOc1ccc(-c2nn(C)c3nc(N)ncc23)cc1F
93 | < 2 µM | COc1ccc(F)cc1-c1nn(C)c2nc(N)ncc12
94 | < 2 µM | Cn1nc(-c2ccc(C#N)cc2)c2cnc(N)nc21
95 | < 2 µM | Cn1nc(-c2ccc(F)c(F)c2F)c2cnc(N)nc21
96 | < 2 µM | Cn1nc(-c2cc(Cl)c(O)cc2O)c2cnc(N)nc21
97 | < 2 µM | Cn1nc(-c2cc(F)cc(OCC(=O)O)c2)c2cnc(N)nc21
98 | < 2 µM | Cn1nc(-c2ccc(OCc3ccccc3)c(F)c2)c2cnc(N)nc21
99 | < 2 µM | Cn1nc(-c2cc(Cl)c(O)c(Cl)c2)c2cnc(N)nc21

Row | IC50 | Compound
100 | < 2 µM | Cn1nc(-c2cnc(N3CCNCC3)nc2)c2cnc(N)nc21
101 | < 2 µM | COc1cc(F)ccc1-c1nn(C)c2nc(N)ncc12
102 | < 2 µM | Cn1nc(-c2cccc3cccnc23)c2cnc(N)nc21
103 | < 2 µM | Cn1nc(-c2ccncc2)c2cnc(N)nc21
104 | < 2 µM | Cn1nc(-c2cccc(S(C)(=O)=O)c2)c2cnc(N)nc21
105 | < 2 µM | CNS(=O)(=O)c1cc(-c2nn(C)c3nc(N)ncc23)c(OC)cc1OC
106 | < 2 µM | COc1cc(OC(F)(F)F)c(Cl)cc1-c1nn(C)c2nc(N)ncc12
107 | < 2 µM | Cn1nc(-c2cc(F)ccc2OCCO)c2cnc(N)nc21
108 | < 2 µM | Cn1nc(-c2ccc(OCCN3CCOCC3)c(F)c2)c2cnc(N)nc21
109 | < 2 µM | COCCOc1ccc(-c2nn(C)c3nc(N)ncc23)cc1F
110 | < 2 µM | COc1ncc(-c2nn(C)c3nc(N)ncc23)cc1F
111 | < 2 µM | Cn1nc(-c2cccc(C(F)(F)F)c2)c2cnc(N)nc21
112 | < 2 µM | Cn1nc(-c2cc(Cl)c(O)c(Br)c2O)c2cnc(N)nc21
113 | < 2 µM | Cn1nc(-c2cc(F)c(O)c(Br)c2)c2cnc(N)nc21
114 | < 2 µM | Cn1nc(-c2ccc(OCC#N)c(F)c2)c2cnc(N)nc21
115 | < 2 µM | COc1ccc(C(F)(F)F)cc1-c1nn(C)c2nc(N)ncc12
116 | < 2 µM | Cn1nc(-c2ccc(N)c(F)c2)c2cnc(N)nc21
117 | < 2 µM | CC(C)Cc1ccc(-c2nn(C)c3nc(N)ncc23)cc1
118 | < 2 µM | COc1ccc(CO)cc1-c1nn(C)c2nc(N)ncc12
119 | < 2 µM | Cc1ccc(-c2nn(C)c3nc(N)ncc23)cc1[N+](=O)[O-]
120 | < 2 µM | Cn1nc(-c2ccc3c(c2)OCCO3)c2cnc(N)nc21
121 | < 2 µM | COc1ccc(-c2nn(C)c3nc(N)ncc23)c(OC)c1
122 | < 2 µM | Cn1nc(-c2cccc(O)c2)c2cnc(N)nc21
123 | < 2 µM | COc1ccc(C(=O)O)cc1-c1nn(C)c2nc(N)ncc12
124 | < 2 µM | Cn1nc(-c2cc(F)c(OCCO)c(Br)c2)c2cnc(N)nc21
125 | < 2 µM | CCN(CC)S(=O)(=O)c1cc(-c2nn(C)c3nc(N)ncc23)ccc1O
126 | < 2 µM | Cn1nc(-c2cc(F)c(O)c(C#N)c2)c2cnc(N)nc21
